# Measurements taken from ChEMBL document CHEMBL1145312, “Structure-activity relationships of triazolopyridine oxazole p38 inhibitors: identification of candidates for clinical development” (Bioorg Med Chem Lett, 2006).
# How the values were obtained:
# [1] = Hepatocyte microsomal extraction ratio in human; conditions: hepatic microsomes
# [2] = biological target: Mitogen-activated protein kinase 14 (Homo sapiens, UniProt Q16539); assay: Inhibition of p38alpha
# Homo sapiens = organism: Homo sapiens; assay: Inhibition of LPS-induced TNFalpha production in human whole blood; format: functional, organism-based
# [3] = biological target: MAP kinase-activated protein kinase 2 (Homo sapiens, UniProt P49137); assay: Inhibition of MAPKAP-K2
# Chain of MAP kinase-activated protein kinase 2 (P49137 whole entry): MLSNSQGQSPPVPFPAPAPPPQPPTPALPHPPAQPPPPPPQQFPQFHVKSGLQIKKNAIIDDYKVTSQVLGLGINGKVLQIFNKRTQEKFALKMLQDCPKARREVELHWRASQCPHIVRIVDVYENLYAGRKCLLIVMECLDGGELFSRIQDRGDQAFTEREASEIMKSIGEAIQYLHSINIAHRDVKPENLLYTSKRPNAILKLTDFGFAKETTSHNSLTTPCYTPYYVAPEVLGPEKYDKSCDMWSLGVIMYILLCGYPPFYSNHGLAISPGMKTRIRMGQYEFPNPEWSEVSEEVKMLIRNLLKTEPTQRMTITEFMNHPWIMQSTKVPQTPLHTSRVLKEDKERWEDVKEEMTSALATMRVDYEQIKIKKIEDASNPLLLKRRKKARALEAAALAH
# [4] = biological target: Ribosomal protein S6 kinase (P70S6K) (Homo sapiens, UniProt P23443+Q9UBS0); assay: Inhibition of P70S6K; format: protein-complex assay
# Chain of Ribosomal protein S6 kinase (P70S6K) (Q9UBS0 whole entry): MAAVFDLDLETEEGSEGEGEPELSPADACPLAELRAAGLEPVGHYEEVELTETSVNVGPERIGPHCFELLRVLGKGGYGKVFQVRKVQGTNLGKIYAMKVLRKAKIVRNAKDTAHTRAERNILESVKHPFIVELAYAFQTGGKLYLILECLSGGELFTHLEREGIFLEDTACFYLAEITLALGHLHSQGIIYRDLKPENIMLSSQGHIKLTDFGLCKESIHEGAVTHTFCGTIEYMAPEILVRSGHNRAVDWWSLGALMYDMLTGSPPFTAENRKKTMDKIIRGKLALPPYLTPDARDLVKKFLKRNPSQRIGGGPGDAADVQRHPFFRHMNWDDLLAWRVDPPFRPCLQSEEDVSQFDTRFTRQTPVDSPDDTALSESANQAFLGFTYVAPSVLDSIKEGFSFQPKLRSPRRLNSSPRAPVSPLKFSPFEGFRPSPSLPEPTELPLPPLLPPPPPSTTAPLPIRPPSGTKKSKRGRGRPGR
# Chain of Ribosomal protein S6 kinase (P70S6K) (P23443 whole entry): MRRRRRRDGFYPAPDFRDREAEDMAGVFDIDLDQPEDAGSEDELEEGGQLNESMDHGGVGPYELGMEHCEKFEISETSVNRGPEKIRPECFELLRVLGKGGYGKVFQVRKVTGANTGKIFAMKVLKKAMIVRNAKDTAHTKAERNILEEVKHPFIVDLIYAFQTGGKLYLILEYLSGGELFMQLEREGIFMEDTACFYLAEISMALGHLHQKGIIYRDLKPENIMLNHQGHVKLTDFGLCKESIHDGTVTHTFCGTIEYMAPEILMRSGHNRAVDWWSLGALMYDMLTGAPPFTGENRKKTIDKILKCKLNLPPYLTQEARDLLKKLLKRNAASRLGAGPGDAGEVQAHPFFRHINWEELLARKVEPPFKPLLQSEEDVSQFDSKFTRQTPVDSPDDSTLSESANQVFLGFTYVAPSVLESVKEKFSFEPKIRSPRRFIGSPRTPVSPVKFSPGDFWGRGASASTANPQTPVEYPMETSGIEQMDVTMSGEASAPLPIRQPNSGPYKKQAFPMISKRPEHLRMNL
# [5] = biological target: Glycogen synthase kinase-3 beta (Homo sapiens, UniProt P49841); assay: Inhibition of GSK3-beta
# Chain of Glycogen synthase kinase-3 beta (P49841 whole entry): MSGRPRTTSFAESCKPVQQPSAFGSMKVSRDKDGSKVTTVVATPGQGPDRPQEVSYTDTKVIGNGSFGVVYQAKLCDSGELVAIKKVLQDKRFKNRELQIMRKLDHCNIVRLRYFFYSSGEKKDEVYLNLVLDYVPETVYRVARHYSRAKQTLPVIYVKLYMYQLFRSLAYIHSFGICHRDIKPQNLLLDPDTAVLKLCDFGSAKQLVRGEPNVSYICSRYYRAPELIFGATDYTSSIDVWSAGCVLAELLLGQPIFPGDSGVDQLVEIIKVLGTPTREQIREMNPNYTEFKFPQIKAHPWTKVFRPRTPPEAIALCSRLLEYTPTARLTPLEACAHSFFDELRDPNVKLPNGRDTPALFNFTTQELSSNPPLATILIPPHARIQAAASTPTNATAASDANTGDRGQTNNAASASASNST
# [6] = biological target: T1, Serine/threonine-protein kinase Chk1 (Homo sapiens, UniProt O14757); assay: Inhibition of CHK1
# T1 sequence (O14757 whole entry): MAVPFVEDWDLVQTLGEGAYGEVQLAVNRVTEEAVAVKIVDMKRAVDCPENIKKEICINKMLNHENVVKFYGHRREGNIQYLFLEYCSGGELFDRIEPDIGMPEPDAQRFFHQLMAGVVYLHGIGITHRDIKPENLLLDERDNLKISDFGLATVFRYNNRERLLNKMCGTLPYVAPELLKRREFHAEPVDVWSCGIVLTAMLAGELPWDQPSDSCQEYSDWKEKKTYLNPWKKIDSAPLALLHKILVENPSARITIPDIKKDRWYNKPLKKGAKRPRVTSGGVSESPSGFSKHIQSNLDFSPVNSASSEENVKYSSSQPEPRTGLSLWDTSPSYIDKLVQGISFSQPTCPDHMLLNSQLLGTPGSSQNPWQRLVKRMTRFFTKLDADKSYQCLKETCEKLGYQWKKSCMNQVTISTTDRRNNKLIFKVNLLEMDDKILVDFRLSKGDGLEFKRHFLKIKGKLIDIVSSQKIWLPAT
# [7] = biological target: Mitogen-activated protein kinase 1 (Homo sapiens, UniProt P28482); assay: Inhibition of ERK2
# Chain of Mitogen-activated protein kinase 1 (P28482 whole entry): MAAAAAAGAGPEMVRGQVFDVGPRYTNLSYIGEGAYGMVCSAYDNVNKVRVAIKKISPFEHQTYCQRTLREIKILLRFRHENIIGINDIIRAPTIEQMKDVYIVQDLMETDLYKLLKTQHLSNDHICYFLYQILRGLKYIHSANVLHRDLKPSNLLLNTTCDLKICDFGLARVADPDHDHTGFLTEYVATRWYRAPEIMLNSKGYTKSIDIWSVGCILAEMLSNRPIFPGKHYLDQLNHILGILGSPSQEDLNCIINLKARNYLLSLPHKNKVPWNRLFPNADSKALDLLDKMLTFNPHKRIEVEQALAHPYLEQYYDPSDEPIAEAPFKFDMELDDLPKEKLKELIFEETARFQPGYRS
# [8] = Solubility in PBS buffer at ph 6.5; format: physicochemical
# [9] = Volume of distribution in rat; format: ADME, organism-based; conditions: in vivo, read-out: Vdss
# [10] = Half life in rat; format: ADME, organism-based; conditions: in vivo
# [11] = Bioavailability in rat; format: ADME, organism-based; conditions: in vivo
# [12] = Plasma clearance in monkey; format: ADME, organism-based, Macaca mulatta; conditions: rhesus monkey
# [13] = Volume of distribution in monkey; format: ADME, organism-based, Macaca mulatta; conditions: rhesus monkey, in vivo; read-out: Vdss
# [14] = Half life in monkey; format: ADME, organism-based, Macaca mulatta; conditions: rhesus monkey, in vivo
# [15] = Bioavailability in monkey; format: ADME, organism-based, Macaca mulatta; conditions: rhesus monkey, in vivo
# hERG (KCNH2) = hERG (KCNH2) (Homo sapiens, UniProt Q12809); assay: Inhibition of hERG channel current in HEK293 cells at 3 uM; format: toxicity, cell-based; conditions: HEK293 cells that express hERG
# Chain of hERG (KCNH2) (Q12809 whole entry): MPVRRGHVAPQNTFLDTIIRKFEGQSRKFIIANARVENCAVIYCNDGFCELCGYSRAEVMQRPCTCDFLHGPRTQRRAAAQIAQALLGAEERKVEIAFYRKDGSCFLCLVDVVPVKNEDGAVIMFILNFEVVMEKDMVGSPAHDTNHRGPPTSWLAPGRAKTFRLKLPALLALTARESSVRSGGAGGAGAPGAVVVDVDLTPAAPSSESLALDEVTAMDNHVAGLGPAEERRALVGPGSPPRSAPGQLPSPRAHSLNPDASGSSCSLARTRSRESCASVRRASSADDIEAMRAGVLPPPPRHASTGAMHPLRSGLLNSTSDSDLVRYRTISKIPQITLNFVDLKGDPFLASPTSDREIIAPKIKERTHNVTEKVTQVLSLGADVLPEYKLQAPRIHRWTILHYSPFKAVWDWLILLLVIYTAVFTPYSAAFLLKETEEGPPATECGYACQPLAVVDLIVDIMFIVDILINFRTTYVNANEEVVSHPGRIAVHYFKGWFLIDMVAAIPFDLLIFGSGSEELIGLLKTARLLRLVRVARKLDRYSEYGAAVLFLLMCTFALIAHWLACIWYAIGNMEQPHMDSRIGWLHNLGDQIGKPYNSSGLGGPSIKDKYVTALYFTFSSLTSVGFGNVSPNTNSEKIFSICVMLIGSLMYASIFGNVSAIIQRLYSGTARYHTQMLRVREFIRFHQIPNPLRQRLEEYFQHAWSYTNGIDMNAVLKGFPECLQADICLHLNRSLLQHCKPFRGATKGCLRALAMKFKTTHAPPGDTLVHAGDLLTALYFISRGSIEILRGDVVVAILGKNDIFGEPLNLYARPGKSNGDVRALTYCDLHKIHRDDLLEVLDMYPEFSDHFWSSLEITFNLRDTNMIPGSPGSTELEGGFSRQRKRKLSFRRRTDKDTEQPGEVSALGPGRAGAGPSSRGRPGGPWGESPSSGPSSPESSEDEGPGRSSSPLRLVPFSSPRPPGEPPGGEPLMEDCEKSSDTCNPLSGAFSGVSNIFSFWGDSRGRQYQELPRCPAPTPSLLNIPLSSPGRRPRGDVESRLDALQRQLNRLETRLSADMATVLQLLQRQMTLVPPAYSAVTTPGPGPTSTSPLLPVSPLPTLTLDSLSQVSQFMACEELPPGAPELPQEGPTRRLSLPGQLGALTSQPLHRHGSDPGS
# Rattus norvegicus = organism: Rattus norvegicus; assay: Inhibition of LPS-induced TNFalpha release in rat; format: functional
# [16] = Plasma clearance in rat; format: ADME, organism-based
# [17] = Permeability from apical to basolateral side of Caco-2 cell membrane; format: ADME, cell-based; conditions: human
# [18] = Permeability from basolateral to apical side of Caco-2 cell membrane; format: ADME, cell-based; conditions: human
# Casein kinase II = Casein kinase II (Homo sapiens, UniProt P19784+P67870+P68400); assay: Inhibition of CK2; format: protein-complex assay
# Chain of Casein kinase II (P67870 whole entry): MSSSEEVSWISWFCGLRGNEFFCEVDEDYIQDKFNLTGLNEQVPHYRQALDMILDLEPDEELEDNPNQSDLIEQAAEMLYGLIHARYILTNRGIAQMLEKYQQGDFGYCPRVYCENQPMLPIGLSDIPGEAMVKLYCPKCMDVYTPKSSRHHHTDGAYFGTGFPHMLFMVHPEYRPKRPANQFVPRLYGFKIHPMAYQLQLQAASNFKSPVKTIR
# Chain of Casein kinase II (P68400 whole entry): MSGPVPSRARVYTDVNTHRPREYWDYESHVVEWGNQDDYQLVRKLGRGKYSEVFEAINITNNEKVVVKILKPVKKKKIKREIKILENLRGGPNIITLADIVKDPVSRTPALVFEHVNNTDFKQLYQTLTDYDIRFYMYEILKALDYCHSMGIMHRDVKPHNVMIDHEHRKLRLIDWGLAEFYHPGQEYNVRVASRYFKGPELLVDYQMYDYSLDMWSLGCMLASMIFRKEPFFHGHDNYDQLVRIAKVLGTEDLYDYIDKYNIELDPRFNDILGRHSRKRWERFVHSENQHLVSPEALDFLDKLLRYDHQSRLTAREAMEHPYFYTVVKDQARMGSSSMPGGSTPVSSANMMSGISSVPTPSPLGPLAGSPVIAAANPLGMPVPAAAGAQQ
# Chain of Casein kinase II (P19784 whole entry): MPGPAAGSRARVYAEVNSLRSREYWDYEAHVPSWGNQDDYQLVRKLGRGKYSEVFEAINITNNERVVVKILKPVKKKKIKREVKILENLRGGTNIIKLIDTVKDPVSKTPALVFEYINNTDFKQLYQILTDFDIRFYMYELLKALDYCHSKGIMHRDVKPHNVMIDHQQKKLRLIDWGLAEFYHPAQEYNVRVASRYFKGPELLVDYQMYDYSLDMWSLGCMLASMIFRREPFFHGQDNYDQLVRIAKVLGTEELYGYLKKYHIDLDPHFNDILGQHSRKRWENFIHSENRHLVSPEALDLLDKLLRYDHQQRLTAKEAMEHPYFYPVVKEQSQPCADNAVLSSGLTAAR
# Chain of Mitogen-activated protein kinase 14 (Q16539 whole entry): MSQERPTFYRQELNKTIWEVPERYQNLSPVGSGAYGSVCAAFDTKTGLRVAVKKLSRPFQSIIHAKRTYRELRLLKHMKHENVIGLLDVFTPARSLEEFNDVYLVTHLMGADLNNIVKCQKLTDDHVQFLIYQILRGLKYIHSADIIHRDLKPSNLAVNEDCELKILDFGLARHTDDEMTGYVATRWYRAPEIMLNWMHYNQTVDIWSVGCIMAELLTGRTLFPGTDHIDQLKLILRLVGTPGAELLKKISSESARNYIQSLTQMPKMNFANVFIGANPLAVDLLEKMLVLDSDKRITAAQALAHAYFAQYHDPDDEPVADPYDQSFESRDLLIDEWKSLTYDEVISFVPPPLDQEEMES
IC50 [2],IC50 (Homo sapiens),IC50 [3],IC50 [4],IC50 [5],IC50 [6],IC50 [7],Structure (SMILES),also measured
0.0011 µM,0.076 µM,> 10 µM,> 10 µM,> 10 µM,> 10 µM,> 10 µM,CC(C)(C)c1nnc2ccc(-c3ocnc3-c3ccc(F)cc3F)cn12,hepatic extraction ratio [1]: < 0.3
0.0018 µM,0.063 µM,> 10 µM,> 10 µM,> 10 µM,> 10 µM,> 10 µM,CC(C)(C)c1nnc2ccc(-c3ocnc3-c3cc(F)c(F)cc3F)cn12,solubility [8]: 41 µg/mL; Vd [9]: 0.6 L/kg; half-life [10]: 2.6 h; bioavailability [11]: 54%; clearance [12]: 3.4 mL/min/kg; Vd [13]: 1.2 L/kg; half-life [14]: 5.2 h; bioavailability [15]: 66%; inhibition at 3 µM (hERG (KCNH2)): 5.9%; ED50 (Rattus norvegicus): 0.1 mg/kg; clearance [16]: 3 mL/min/kg
0.0076 µM,0.865 µM,> 10 µM,> 10 µM,> 10 µM,> 10 µM,> 10 µM,CCNc1nnc2ccc(-c3ocnc3-c3ccc(F)cc3)cn12,–
0.0028 µM,0.18 µM,> 10 µM,> 10 µM,> 10 µM,> 10 µM,> 10 µM,CC(C)c1nnc2ccc(-c3c[nH]nc3-c3cc(F)ccc3F)cn12,Papp A→B [17]: 6 ×10⁻⁶ cm/s; Papp B→A [18]: 18 ×10⁻⁶ cm/s
0.0096 µM,0.973 µM,> 10 µM,> 10 µM,> 10 µM,> 10 µM,> 10 µM,CC(C)c1nnc2ccc(-c3ocnc3-c3ccccc3)cn12,IC50 (Casein kinase II): > 10 µM
